Data as given in ChEMBL document CHEMBL2163207, “Predicting new indications for approved drugs using a proteochemometric method” (J Med Chem, 2012).
pIC50: −log10 of the molar value.

Experiments:
Plasma [1] = assay: Plasma concentration in human; type: ADME, cell-free
Plasma [2] = assay: Plasma concentration in rat; type: ADME, cell-free
MDA-MB-231 = assay: Cytotoxicity against human MDA-MB-231 cells after 48 hrs by MTS assay; type: functional, cell-based; conditions: MDA-MB-231, 48 h
[3] = target: T1, Cadherin-11 (Mus musculus) (UniProt P55288); assay: Binding affinity to mouse recombinant CDH11 extracellular domain 1-2 by surface plasmon resonance
T1 sequence (whole entry): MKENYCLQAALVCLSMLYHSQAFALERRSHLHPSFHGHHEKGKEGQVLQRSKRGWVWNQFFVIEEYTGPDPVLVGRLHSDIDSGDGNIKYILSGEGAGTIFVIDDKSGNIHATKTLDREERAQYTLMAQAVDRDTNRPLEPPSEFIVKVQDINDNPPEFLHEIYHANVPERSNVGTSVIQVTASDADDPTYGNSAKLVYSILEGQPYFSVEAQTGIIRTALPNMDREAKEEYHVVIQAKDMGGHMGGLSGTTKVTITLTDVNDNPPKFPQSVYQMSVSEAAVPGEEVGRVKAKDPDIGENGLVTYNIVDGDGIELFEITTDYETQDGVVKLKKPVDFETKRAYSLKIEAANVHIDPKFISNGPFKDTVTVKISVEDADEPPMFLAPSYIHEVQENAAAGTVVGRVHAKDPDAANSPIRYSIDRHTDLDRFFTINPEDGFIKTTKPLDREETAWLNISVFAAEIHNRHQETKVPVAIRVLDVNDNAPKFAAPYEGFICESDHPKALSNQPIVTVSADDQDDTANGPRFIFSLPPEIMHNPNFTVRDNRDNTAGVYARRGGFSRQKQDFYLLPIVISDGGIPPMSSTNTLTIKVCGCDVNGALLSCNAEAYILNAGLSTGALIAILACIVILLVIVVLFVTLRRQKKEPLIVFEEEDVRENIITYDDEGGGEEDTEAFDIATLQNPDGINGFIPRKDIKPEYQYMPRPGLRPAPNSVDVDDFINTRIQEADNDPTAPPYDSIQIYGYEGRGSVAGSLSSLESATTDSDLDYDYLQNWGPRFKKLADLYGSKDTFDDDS

concentration (Plasma [1]) | concentration (Plasma [2]) | Activity [3] | Compound | pIC50 (MDA-MB-231)
1000 nM | 1000 nM | Dose-dependent effect | Cc1ccc(-c2cc(C(F)(F)F)nn2-c2ccc(S(N)(=O)=O)cc2)cc1 [CELECOXIB] | 4.40
– | – | Dose-dependent effect | Cc1ccc(C)c(-c2cc(C(F)(F)F)nn2-c2ccc(S(N)(=O)=O)cc2)c1 [DIMETHYL CELECOXIB] | 4.44
